Where “and” joins values, the source holds several entries; their conditions need not be identical. Equal entries are not always repeated.
Assays:
LS174T cells [1] = test: Optimization of dye concentrations: flow cytometry of LS174T cells labeled with six DiD dyes; format: cell-based, human
Method: (§1) The human colon cancer cell line LS174T was used here as a model to identify the optimal dyes marker with minimal transfer to neighbor cells for cell tracking. A family of DiD dyes (Ex: 648 nm, Em: 667 nm) with variable lipophilic aliphatic tails (Cm/Cn here refer to lengths lipophilic aliphatic tails in the number of C atoms) were investigated: MT279 (C22/C3), MT280 (C22/C12), MT284 (C14/C3), MT285 (C14/C14), CN1012 (C20/C20), MTTI-157 without the DOTA (C22/C22). LS174T cells were cultured in minimal essential medium (MEM) with nonessential amino acids, 10% fetal bovine serum (FBS) and 1% penicillin/streptomycin at 37° C. in a humidified atmosphere with 5% CO2 and were passaged weekly.
Four working dye stock solutions were investigated. LS174T cells were trypsinized, collected, and washed twice with MEM without serum when the flask was 90% confluent. […] Immediately, prior to staining, 2× working dye stock solutions (1 μM, 4 μM, 10 μM or 20 μM) in Diluent C were prepared. Then 500 μl of cell suspension was added rapidly into 500 μl of 2× working dye and immediately mixed by pipetting. […] The labeled cells were fixed in 2% paraformaldehyde and analyzed by flow cytometry.

LS174T cells [2] = test: Flow cytometry of LS174T cells labeled with MTTI-157: labeling efficiency under different conditions; format: cell-based, human; settings: for labeling efficiency: Set 1, dye dissolved in ethanol
Method: The method for LS174T cells labeling with MTTI-157 was as described as before. Briefly, LS174T cells were trypsinized, collected, and washed twice with MEM without serum and then resuspended in Diluent C. Immediately, prior to staining; a 2× working dye stock solution in Diluent C was prepared. The cell suspension was added rapidly to an equal volume of the 2× working dye solution and immediately mixed by pipetting up. […] Subsequently, the cell suspension was spun at 400 g for 5 min. […] After labeling, the labeled cells were fixed in 2% paraformaldehyde and analyzed by flow cytometry.
MTTI-157 was dissolved in ethanol at the concentration of 2 μg/μL.
MTTI-157 was dissolved in DMSO at the concentration of 2 μg/μL.

TC1 wild type mES cells = test: Culture and fluorescence microscopy of MTTI-157 labeled TC1 mES cells; format: cell-based, mouse; settings: through Day 4, 2 μM and 10 μM dye
Method: The MTTI-157 labeled mES cells were seeded into 12-well plates with about 0.5×10^6 cells per well to grow under normal culture conditions to evaluate cell viability, differentiation, fluorescence dye stability, and dye partitioning to daughter cells over time. Unlabeled normal TC1 wild type mES cells were used as control. The cell associated fluorescence was detected from the plates on an Olympus IX 70 Inverted Light Microscope (Olympus America, Inc., NY) using a Cy5 filter on Days 0, 1 and 4 after seeding.
After dye labeling, the trypan blue staining was performed to detect cell viability. […] The fluorescence is shown in red and paired with the phase-contrast image on its right. […] It is obvious from Rows 2 and 3 that the MTTI-157 incorporated into the mES cells. […] By the next day (Day 1), the cells begin to merge forming clones, as expected, and the fluorescence is seen distributed within the clones with passage to other members of the cell cluster, i.e., the daughter cells. On Day 4, the cell clusters are now larger and more cells within the cluster appear to carry the fluorescence signal.

Wild type mES cells BL/6 = test: Flow cytometry of BL/6 mES cells labeled with MTTI-157 (percent labeled cells); format: cell-based, mouse
Text: Unlabeled BL/6 cells were used as a control.

LS174T cells [3] = test: Dye transfer: co-culture of dye labeled and unlabeled LS174T cells, flow cytometry; format: cell-based, human
Method: as §1
LS174T cells were trypsinized, collected, and washed twice with MEM without serum and labeled with the six dyes according to the method described above. […] Study sets are described below. One (1) ml of the cell suspension was added rapidly to 1 ml of 2× working dye solution and immediately mixed by pipetting. […] Subsequently, the cells suspension was spun at 400 g for 10 min. […] The cell viability was determined by trypan blue staining. The dye labeled cells were co-cultured with an equal number of unlabeled cells under normal culture conditions. Samples were removed at 0 h, 24 h and 48 h after initiation of co-culture and fixed in 2% paraformaldehyde for flow cytometry analysis.

## CCCCCCCCCCCCCCCCCCCCCCN1C(=CC=CC=CC2=[N+](CCCCCCCCCCCCCCCCCCCCCC)c3ccc(CNC(=O)CN4CCN(CC(=O)O)CCN(CC(=O)O)CCN(CC(=O)O)CC4)cc3C2(C)C)C(C)(C)c2ccccc21.[I-] [MTTI-157]
LS174T cells [1]; dye concentration 0.5 μM
  percent of cells labeled: 71.5%
LS174T cells [1]; dye concentration 2 μM
  percent of cells labeled: 92.3%
LS174T cells [1]; dye concentration 5 μM
  percent of cells labeled: 98.6%
LS174T cells [1]; dye concentration 10 μM
  percent of cells labeled: 99.4%
LS174T cells [2]; final dye concentration 10 μM
  labeling efficiency: about 60%
LS174T cells [2]; highest final dye concentration of 20 μM
  labeling efficiency: about 70%
LS174T cells [2]; dye dissolved in DMSO, final dye 10 μM, final cells 10 ×10^7/ml, DMSO in 2x working dye stock 2%
  % labeled cells in total cells by FACS: 97.3%
LS174T cells [2]; dye dissolved in DMSO, final dye 20 μM, final cells 10 ×10^7/ml, DMSO in 2x working dye stock 4%
  % labeled cells in total cells by FACS: 97.9%
LS174T cells [2]; dye dissolved in DMSO, final dye 20 μM, final cells 20 ×10^7/ml, DMSO in 2x working dye stock 4%
  % labeled cells in total cells by FACS: 98.6%
LS174T cells [2]; dye dissolved in DMSO, final dye 40 μM, final cells 10 ×10^7/ml, DMSO in 2x working dye stock 8%
  % labeled cells in total cells by FACS: 99.2%
LS174T cells [2]; dye dissolved in DMSO, final dye 40 μM, final cells 20 ×10^7/ml, DMSO in 2x working dye stock 8%
  % labeled cells in total cells by FACS: 98.5%
LS174T cells [2]; dye dissolved in DMSO, final dye 80 μM, final cells 10 ×10^7/ml, DMSO in 2x working dye stock 16%
  % labeled cells in total cells by FACS: 99.5%
LS174T cells [2]; dye dissolved in ethanol, final dye 2 μM, final cells 1 ×10^7/ml, DMSO in 2x working dye stock 0%
  % labeled cells in total cells by FACS: 12.6%
LS174T cells [2]; dye dissolved in ethanol, final dye 2 μM, final cells 1 ×10^7/ml, DMSO in 2x working dye stock 2%
  % labeled cells in total cells by FACS: 23.7%
LS174T cells [2]; dye dissolved in ethanol, final dye 2 μM, final cells 10 ×10^7/ml, DMSO in 2x working dye stock 0%
  % labeled cells in total cells by FACS: 29.5%
LS174T cells [2]; dye dissolved in ethanol, final dye 10 μM, final cells 1 ×10^7/ml, DMSO in 2x working dye stock 0%
  % labeled cells in total cells by FACS: 62.7%
LS174T cells [2]; dye dissolved in ethanol, final dye 10 μM, final cells 1 ×10^7/ml, DMSO in 2x working dye stock 2%
  % labeled cells in total cells by FACS: 55.9%
LS174T cells [2]; dye dissolved in ethanol, final dye 10 μM, final cells 10 ×10^7/ml, DMSO in 2x working dye stock 0%
  % labeled cells in total cells by FACS: 57.9%
LS174T cells [2]; dye dissolved in ethanol, final dye 20 μM, final cells 1 ×10^7/ml, DMSO in 2x working dye stock 0%
  % labeled cells in total cells by FACS: 74.3%
LS174T cells [2]; dye dissolved in ethanol, final dye 20 μM, final cells 1 ×10^7/ml, DMSO in 2x working dye stock 2%
  % labeled cells in total cells by FACS: 71.1%
LS174T cells [2]; dye dissolved in ethanol, final dye 20 μM, final cells 10 ×10^7/ml, DMSO in 2x working dye stock 0%
  % labeled cells in total cells by FACS: 75.0%
TC1 wild type mES cells
  effects on cellular differentiation: no obvious effects on cellular differentiation
Wild type mES cells BL/6; 2 μM dye
  percent of labeled cells in total cells: 9.8%
Wild type mES cells BL/6; 10 μM dye
  percent of labeled cells in total cells: 28.7%
Wild type mES cells BL/6; 20 μM dye
  percent of labeled cells in total cells: 34%
LS174T cells [3]; Set 1, 2 μM dye, 24 h of co-culture
  Percent of unlabeled cells incorporating dye from labeled cells compared to the value at 0 h: 22.39%
LS174T cells [3]; Set 1, 2 μM dye, 48 h of co-culture
  Percent of unlabeled cells incorporating dye from labeled cells compared to the value at 0 h: 22.74%
LS174T cells [3]; Set 2, 10 μM dye, 24 h
  Percent of unlabeled cells incorporating dye from labeled cells compared to the value at 0 h: 22% and 22.17%
LS174T cells [3]; Set 2, 10 μM dye, 48 h
  Percent of unlabeled cells incorporating dye from labeled cells compared to the value at 0 h: 28% and 28.45%
LS174T cells [3]; Set 3, 5 μM dye, 24 h
  Percent of unlabeled cells incorporating dye from labeled cells compared to the value at 0 h: 6.93%
LS174T cells [3]; Set 3, 5 μM dye, 48 h
  Percent of unlabeled cells incorporating dye from labeled cells compared to the value at 0 h: 22.16%
LS174T cells [3]; Set 4, 0.5 μM dye
  dye transfer to unlabeled cells (in words): dye transfer took place
LS174T cells [3]; Set 4, 0.5 μM dye, 24 h
  Percent of unlabeled cells incorporating dye from labeled cells compared to that at 0 h: 13.58%
LS174T cells [3]; Set 4, 0.5 μM dye, 48 h
  Percent of unlabeled cells incorporating dye from labeled cells compared to that at 0 h: 14.675%
LS174T cells [3]; Set 4, 2 μM dye, 24 h
  Percent of unlabeled cells incorporating dye from labeled cells compared to that at 0 h: 23.555%
LS174T cells [3]; Set 4, 2 μM dye, 48 h
  Percent of unlabeled cells incorporating dye from labeled cells compared to that at 0 h: 25.615%

From US10537650B2, “Molecular probes for multimodality imaging and tracking of stem cells” (University of Massachusetts, priority 2012, dated 2020)
